From patent US20240285674A1, “USE OF SULFATE GLUCO-GALACTO-OLIGOSACCHARIDE IN PREPARATION OF ANTICOAGULANT AND/OR ANTITHROMBOTIC DRUG” (NANJING UNIVERSITY OF SCIENCE AND TECHNOLOGY, priority 2021, published 2024) come the findings set out here.

One series deals with Coagulation factor FXa (Homo sapiens, UniProt P00742). Kind of series: Inhibitory activity on coagulation factor FXa (chromogenic substrate CS-11(22)). Particulars: sample 1 mg/mL; for Inhibitory effect on coagulation factor FXa: incubated at 37° C. for 1 h. The series is classed as biochemical. The procedure:
(§1) • a. 100 μL of FXa (5 nM) and 50 μL of the sulfate gluco-galacto-oligosaccharide sample (1 mg/mL) were mixed in a 96-well plate, incubated at 37° C. for 1 h, added with 50 μL of a substrate CS-11(22) (1.77 mM), and detected at a wavelength of 405 nm for 60 min, detecting once every minute. • b. 100 μL of HFXIa (human coagulation factor XIa, 1 nM) and 50 μL of the sulfate gluco-galacto-oligosaccharide sample (1 mg/mL) were mixed in a 96-well plate, incubated at 37° C. for 1 h, added with 50 μL of a substrate S2366 (1 mM), and detected at a wavelength of 405 nm for 60 min, detecting once every minute. • c. 100 μL of FXIIa (4 nM) and 50 μL of the sulfate gluco-galacto-oligosaccharide sample (1 mg/mL) were mixed in a 96-well plate, incubated 37° C. for 1 h, added with 50 μL of a substrate Pefachrome FXIIa/TH5253 (1 mM), and detected at a wavelength of 405 nm for 60 min, detecting once every minute. • d. 100 μL of Trypsin (8.3 nM) and 50 μL of the sulfate gluco-galacto-oligosaccharide sample (1 mg/mL) were mixed in a 96-well plate, incubated 37° C. for 1 h, added with 50 μL of a substrate CS-11(22) (1 mM), and detected at a wavelength of 405 nm for 60 min, detecting once every minute. • e. 100 μL of Thrombin (0.2 IU/mL) and 50 μL of the sulfate gluco-galacto-oligosaccharide sample (1 mg/mL) were mixed in a 96-well plate, incubated at 37° C. for 1 h, added with 50 μL of a substrate CS-01(38) (400 μM), and detected at a wavelength of 405 nm for 60 min, detecting once every minute. • f. 100 μL of Kallikrein (1 nM) and 50 μL of the sulfate gluco-galacto-oligosaccharide sample (1 mg/mL) were mixed in a 96-well plate, incubated 37° C. for 1 h, added with 50 μL of a substrate CS-31(02) (1 mM), and detected at a wavelength of 405 nm for 60 min, detecting once every minute.
(§2) Data processing was conducted using the software Graphpad Prism 6.0. Regression analysis was conducted with the reaction time as an abscissa and the absorbance value at 405 nm as an ordinate.
The calculated inhibition rate=(V0−V1)/V0×100%. […] The degree of sulfation of the sulfate gluco-galacto-oligosaccharide was controlled by controlling the ratio of gluco-galacto-oligosaccharide and sulfating reagent. […] It was seen that the more sulfate groups on average per sugar residue, the higher the inhibition rate of FXa by the sulfate gluco-galacto-oligosaccharide.

The test system of another series is Trypsin. In words: Inhibitory activity on trypsin (chromogenic substrate CS-11(22)). The series is classed as biochemical. Particulars: sample 1 mg/mL, incubated at 37° C. for 1 h. The procedure:
as §1, with “100 μL of Thrombin (0.2 IU/mL) and 50 μL of the sulfate gluco-galacto-oligosaccharide sample (1 mg/mL) were mixed in a 96-well plate, incubated at 37° C. for 1 h, added with 50 μL of a substrate CS-01(38) (400 μM), and detected at a wavelength of 405 nm for 60 min, detecting once every minute. • f. 100 μL of Kallikrein (1 nM) and 50 μL of the sulfate gluco-galacto-oligosaccharide sample (1 mg/mL) were mixed in a 96-well plate, incubated 37° C. for 1 h, added with 50 μL of a substrate CS-31(02) (1 mM), and detected at a wavelength of 405 nm for 60 min, detecting once every minute.” left out
as §2

Series [1] in a line: Tail tip bleeding time (bleeding risk). In kind it is in vivo, C57/BL-6J mice. Particulars: tail vein, mice; for cumulative bleeding time: 10 min after administration, capped at 20 min. The procedure:
(§3) The experimental animals were male C57/BL-6J mice, weighing 18 g to 20 g. The mice were housed under standard experimental conditions with a 12-hour light-12-hour dark cycle with free access to water and food. The mice were anesthetized by intraperitoneal injection of 5% chloral hydrate, and administration of the drug was administered through the tail vein after confirming that the mice were completely anesthetized and had no eyelid reflex. The mice were randomly divided into three groups. A first group was a negative control group and was injected with physiological saline through the tail vein; a second group was a low-dose group, with 0.5 mg/mL sulfate gluco-galacto-oligosaccharide injected into the tail vein; and a third group was a high-dose group, with 1.0 mg/mL sulfate gluco-galacto-oligosaccharide injected into the tail vein.
10 min after administration, the mouse was placed stably with its tail in a naturally straightened state. The mouse tail was cut off 3 mm from the tip, and then immersed in a silanized tube filled with 37° C. physiological saline. Start timing from cutting off the tail tip, 20 min. the accumulated bleeding time t after cutting off the tail tip of the mouse was recorded with a stopwatch. If the bleeding time t was greater than 20 min, it was recorded as 20 min.
Data processing was conducted using the Graphpad Prism 6.0 software. A dot plot of sample concentration was made versus bleeding time. P<0.05 indicated a significant difference.
Bleeding time refers to a duration required from bleeding to natural hemostasis after capillary damage. In the negative control group (physiological saline group), the cumulative bleeding time was 10.35±5.48 min.

A further series has as its target Kallikrein (Homo sapiens, UniProt P03952). In words: Inhibitory activity on kallikrein (chromogenic substrate CS-31(02)). In kind it is biochemical. Particulars: sample 1 mg/mL, incubated at 37° C. for 1 h. As for the experimental part:
as §1, with “100 μL of Thrombin (0.2 IU/mL) and 50 μL of the sulfate gluco-galacto-oligosaccharide sample (1 mg/mL) were mixed in a 96-well plate, incubated at 37° C. for 1 h, added with 50 μL of a substrate CS-01(38) (400 μM), and detected at a wavelength of 405 nm for 60 min, detecting once every minute. • f. 100 μL of Kallikrein (1 nM) and 50 μL of the sulfate gluco-galacto-oligosaccharide sample (1 mg/mL) were mixed in a 96-well plate, incubated 37° C. for 1 h, added with 50 μL of a substrate CS-31(02) (1 mM), and detected at a wavelength of 405 nm for 60 min, detecting once every minute.” left out
as §2

A further series concerns the target T1, Thrombin (Homo sapiens, UniProt P00734).
T1 construct: 100 μL of Thrombin (0.2 IU/mL)
In words: Inhibitory activity on thrombin (chromogenic substrate CS-01(38)). The conditions noted are these: sample 1 mg/mL, incubated at 37° C. for 1 h. The series is classed as biochemical. The procedure:
as §1, with “100 μL of Thrombin (0.2 IU/mL) and 50 μL of the sulfate gluco-galacto-oligosaccharide sample (1 mg/mL) were mixed in a 96-well plate, incubated at 37° C. for 1 h, added with 50 μL of a substrate CS-01(38) (400 μM), and detected at a wavelength of 405 nm for 60 min, detecting once every minute. • f. 100 μL of Kallikrein (1 nM) and 50 μL of the sulfate gluco-galacto-oligosaccharide sample (1 mg/mL) were mixed in a 96-well plate, incubated 37° C. for 1 h, added with 50 μL of a substrate CS-31(02) (1 mM), and detected at a wavelength of 405 nm for 60 min, detecting once every minute.” left out
as §2

Series [2] has as its target T2, HFXIa (human coagulation factor XIa) (Homo sapiens, UniProt P03951).
T2 construct: HFXIa (human coagulation factor XIa, 1 nM)
In words: Inhibitory activity on coagulation factor XIa (chromogenic substrate S2366). In kind it is biochemical. The conditions noted are these: sample 1 mg/mL, incubated at 37° C. for 1 h. The procedure:
as §1, with “100 μL of Thrombin (0.2 IU/mL) and 50 μL of the sulfate gluco-galacto-oligosaccharide sample (1 mg/mL) were mixed in a 96-well plate, incubated at 37° C. for 1 h, added with 50 μL of a substrate CS-01(38) (400 μM), and detected at a wavelength of 405 nm for 60 min, detecting once every minute. • f. 100 μL of Kallikrein (1 nM) and 50 μL of the sulfate gluco-galacto-oligosaccharide sample (1 mg/mL) were mixed in a 96-well plate, incubated 37° C. for 1 h, added with 50 μL of a substrate CS-31(02) (1 mM), and detected at a wavelength of 405 nm for 60 min, detecting once every minute.” left out
as §2

In a further series the target is T3, Coagulation factor FXIIa (Homo sapiens, UniProt P00748).
T3 sequence (P00748 373-615 limits assumed): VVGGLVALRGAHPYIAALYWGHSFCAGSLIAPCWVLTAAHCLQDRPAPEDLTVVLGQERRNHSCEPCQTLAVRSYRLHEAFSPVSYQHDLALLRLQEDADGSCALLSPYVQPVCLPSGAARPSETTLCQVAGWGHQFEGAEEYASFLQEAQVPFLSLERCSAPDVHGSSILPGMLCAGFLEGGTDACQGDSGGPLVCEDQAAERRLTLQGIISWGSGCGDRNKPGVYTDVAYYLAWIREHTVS
Kind of series: Inhibitory activity on FXIIa (chromogenic substrate Pefachrome FXIIa/TH5253). The series is classed as biochemical. Particulars: sample 1 mg/mL, incubated at 37° C. for 1 h. The procedure: as §1, with “100 μL of Thrombin (0.2 IU/mL) and 50 μL of the sulfate gluco-galacto-oligosaccharide sample (1 mg/mL) were mixed in a 96-well plate, incubated at 37° C. for 1 h, added with 50 μL of a substrate CS-01(38) (400 μM), and detected at a wavelength of 405 nm for 60 min, detecting once every minute. • f. 100 μL of Kallikrein (1 nM) and 50 μL of the sulfate gluco-galacto-oligosaccharide sample (1 mg/mL) were mixed in a 96-well plate, incubated 37° C. for 1 h, added with 50 μL of a substrate CS-31(02) (1 mM), and detected at a wavelength of 405 nm for 60 min, detecting once every minute.” left out
as §2

Series [3] concerns intrinsic coagulation pathway. Kind of series: Activated partial thromboplastin time (APTT) of plasma from mice after tail vein injection. The series is classed as in vivo, C57/BL-6J mice. Particulars: 0.25, 0.5 and 1.0 mg/mL injected into the tail vein. The procedure: The experimental animals were male C57/BL-6J mice, weighing 18 g to 20 g. The mice were housed under standard experimental conditions with a 12-hour light-12-hour dark cycle with free access to water and food. The mice were anesthetized by intraperitoneal injection of 5% chloral hydrate, and administration of the drug was administered through the tail vein after confirming that the mice were completely anesthetized and had no eyelid reflex. The mice were randomly divided into four groups. […]
Activated partial thromboplastin time (APTT) is a duration required to observe plasma coagulation after adding an APTT reagent and calcium ions to the tested plasma. […] The APTT was measured according to the operating procedures in the kit instructions, and the fibrin formation time was read on the coagulometer. […]
The coagulation time of the physiological saline group was recorded as 1 times, and the multiples of APTT of the sulfate gluco-galacto-oligosaccharide samples with different concentrations relative to the physiological saline group were calculated.

Series [4] has as its system ferric chloride-induced carotid artery thrombosis. Kind of series: Ferric chloride-induced carotid artery thrombosis model, blood vessel occlusion time. The series is classed as in vivo, C57/BL-6J mice. The conditions noted are these: tail vein, mice. The procedure:
as §3, with “vein. After tail vein administration, the mouse carotid arteries were dissected, and a filter paper piece (1 mm×2 mm) dipped in 6.0% ferric chloride solution was applied to the outer wall of the mouse carotid artery to allow induction for 3 min to construct a ferric chloride-induced carotid artery thrombosis model.” for “vein.”
The blood flow and thrombosis of the mouse carotid arteries were observed using a laser speckle flow imager, and the mouse carotid arteries were observed under the moorFLPI-2 lens for 15 min. The carotid arteries of the mice at the end of the observation were carefully dissected and stained with HE.
Charts were produced using GraphPad Prism 6.0 software, and statistical differences were analyzed using one-way analysis of variance and Dunnett's multiple comparisons. P<0.05 indicated a significant difference.
Blood vessel occlusion time refers to a duration from removal of the filter paper soaked in ferric chloride to the blood vessel occlusion. If no thrombosis was observed 15 min after removal of the ferric chloride filter paper, 15 min was considered as the vessel occlusion time. Combined with FIG. 3, in the negative control group (physiological saline group), the average blood vessel occlusion time was 4.5±0.23 min. […]

Chain of Coagulation factor FXa (P00742 235-488 limits assumed): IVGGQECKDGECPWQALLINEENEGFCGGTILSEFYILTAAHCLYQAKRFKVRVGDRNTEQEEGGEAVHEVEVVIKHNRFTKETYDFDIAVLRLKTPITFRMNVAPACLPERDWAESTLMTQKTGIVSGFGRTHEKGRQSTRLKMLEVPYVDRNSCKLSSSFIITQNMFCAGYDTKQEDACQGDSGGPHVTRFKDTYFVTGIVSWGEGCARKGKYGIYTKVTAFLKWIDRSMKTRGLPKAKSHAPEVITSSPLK
Chain of Coagulation factor FXa (P00742 41-179 limits assumed): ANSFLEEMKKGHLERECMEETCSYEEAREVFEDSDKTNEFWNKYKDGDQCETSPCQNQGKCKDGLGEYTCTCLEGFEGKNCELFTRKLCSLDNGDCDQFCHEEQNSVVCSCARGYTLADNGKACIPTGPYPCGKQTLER
T2 sequence (P03951 388-625 limits assumed): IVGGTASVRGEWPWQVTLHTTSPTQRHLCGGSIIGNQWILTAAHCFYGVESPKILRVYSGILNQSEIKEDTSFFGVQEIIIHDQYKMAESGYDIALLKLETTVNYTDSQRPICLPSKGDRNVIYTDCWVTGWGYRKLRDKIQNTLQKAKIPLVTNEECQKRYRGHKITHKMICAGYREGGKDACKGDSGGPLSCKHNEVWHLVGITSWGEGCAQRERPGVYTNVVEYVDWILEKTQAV
T2 sequence (P03951 19-387 limits assumed): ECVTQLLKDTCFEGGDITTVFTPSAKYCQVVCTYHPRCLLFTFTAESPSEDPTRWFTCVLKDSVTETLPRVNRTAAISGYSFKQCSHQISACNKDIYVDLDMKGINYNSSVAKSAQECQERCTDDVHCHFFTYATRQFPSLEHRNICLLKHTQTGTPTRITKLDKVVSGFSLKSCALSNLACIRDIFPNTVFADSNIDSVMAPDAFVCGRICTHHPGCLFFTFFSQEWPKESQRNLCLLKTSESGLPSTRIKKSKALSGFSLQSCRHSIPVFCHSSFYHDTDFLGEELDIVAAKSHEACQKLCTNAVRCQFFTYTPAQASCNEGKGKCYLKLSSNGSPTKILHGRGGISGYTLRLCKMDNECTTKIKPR
Chain of Kallikrein (P03952 391-638 limits assumed): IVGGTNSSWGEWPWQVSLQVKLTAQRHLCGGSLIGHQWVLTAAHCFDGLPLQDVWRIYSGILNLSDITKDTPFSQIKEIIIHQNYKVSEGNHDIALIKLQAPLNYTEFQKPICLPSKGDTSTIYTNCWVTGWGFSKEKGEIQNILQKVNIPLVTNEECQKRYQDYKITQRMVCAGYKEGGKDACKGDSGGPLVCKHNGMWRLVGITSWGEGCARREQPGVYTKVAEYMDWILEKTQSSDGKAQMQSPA
Chain of Kallikrein (P03952 20-390 partner limits assumed): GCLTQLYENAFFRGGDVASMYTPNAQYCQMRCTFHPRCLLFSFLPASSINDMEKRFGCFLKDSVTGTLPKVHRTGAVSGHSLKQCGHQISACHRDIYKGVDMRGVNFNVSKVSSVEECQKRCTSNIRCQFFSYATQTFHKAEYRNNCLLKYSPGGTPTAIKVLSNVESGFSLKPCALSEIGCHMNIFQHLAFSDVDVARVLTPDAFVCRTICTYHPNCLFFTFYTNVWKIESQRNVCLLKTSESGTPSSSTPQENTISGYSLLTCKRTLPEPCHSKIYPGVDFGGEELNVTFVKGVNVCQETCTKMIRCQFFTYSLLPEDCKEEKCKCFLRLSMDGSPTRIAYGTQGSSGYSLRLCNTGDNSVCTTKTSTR

Regarding “gluco-galacto-oligosaccharide [reference compound]”, the “Inhibitory effect on coagulation factor FXa” value at Coagulation factor FXa is recorded as “no inhibitory activity”.

Take sulfate gluco-galacto-oligosaccharide: the “Inhibitory effect on Trypsin” value in the series on Trypsin is “No inhibition”. Further, the “Inhibitory effect on coagulation factor FXa” value at Coagulation factor FXa is reported as “Inhibition”. For the same substance, the “Inhibition rate of FXa” value at Coagulation factor FXa (listed as sulfate gluco-galacto-oligosaccharide with averagely 1.65 sulfate groups per sug) came out at 57.6%. The “Difference of cumulative bleeding time from physiological saline group” value in series [1] (0.5 mg/mL and 1.0 mg/mL) is given as “no statistically significant difference”. The cumulative bleeding time in series [1] (0.5 mg/mL) was determined as 11.88 ± 4.44 min; in series [1] (1.0 mg/mL), 11.60 ± 4.13 min. The “Inhibitory effect on Kallikrein” value at Kallikrein is on record as “No inhibition”. For the same substance, at Thrombin, the “Inhibitory effect on Thrombin” value is on record as “No inhibition”. The “Inhibitory effect on coagulation factor FXIa” value in series [2] is “No inhibition”. Also, on Coagulation factor FXIIa, the “Inhibitory effect on coagulation factor FXIIa” value was “No inhibition”. For the same substance, in [3], the “Effect on APTT (plasma coagulation time relative to physiological saline group)” value is “significant impact on APTT”. Further, the “average blood vessel occlusion time” value worked out at 5.4 ± 1.37 min in series [4] (0.5 mg/mL, observed 15 min) and 15 min in series [4] (1.0 mg/mL, 15 min recorded if no thrombosis within 15 min). Further, in series [4] (1.0 mg/mL), the “Blood flow in carotid artery” value is recorded as “remained unchanged”.

With “sulfate gluco-galacto-oligosaccharide [0.47]”, the “Inhibition rate of FXa” value on Coagulation factor FXa turned out to be 10.2%.

For “sulfate gluco-galacto-oligosaccharide [1.23]”, on Coagulation factor FXa, the “Inhibition rate of FXa” value came to 39.2%.

For the substance “sulfate gluco-galacto-oligosaccharide [2.10]”, the “Inhibition rate of FXa” value at Coagulation factor FXa came to 65.5%.

On to “sulfate gluco-galacto-oligosaccharide [2.52]”, for which, at Coagulation factor FXa, the “Inhibition rate of FXa” value was determined as 78.4%.
